Experimental data reported in US6740759B1, “Method for producing 2-alkyl-4-isothiazoline-3-one” (Chemicrea, Inc., priority 1999, dated 2004).

Test: mutagenicity (Ames) testing of the crystals obtained
Type: cell-based
Design: key: A “+” signifies a positive adverse effect on the body; a “−” denotes no adverse effect
Settings: crystals obtained in the example
Description: The numbers in the table enclosed by parentheses in the column of solvents used in the reaction denote the molar fraction of the solubility of hydrogen chloride at normal temperature/pressure. The purity of the crystals obtained in Working Examples 1 to 7 and in the Comparative Example was analyzed by high-performance liquid chromatography and submitted to mutagenicity (Ames) testing. A “+” signifies a positive adverse effect on the body while a “−” denotes no adverse effect.

SMILES | Ames test
O=c1ccsn1Cc1ccccc1 [Working Example 7, 2-benzyl-4-isothiazoline-3-one] | −
Cn1sccc1=O [Working Example 3, 2-methyl-4-isothiazoline-3-one] | −
CCCCCCCCn1sccc1=O [Working Example 4, 2-n-octyl-4-isothiazoline-3-one] | −
